Experiments:
ANPEP = ANPEP expression by quantitative real-time RT-PCR in cells differentiating from human iPS cells to enterocyte-like cells; assay type: cell-based; conditions: compound added with BIO and DAPT, 5 days culture; versus control without the compounds; FIG. 2B
Description: (§1) The definitive endoderm cells generated from the human iPS cell line (Tic) by the method described in Example 1 above were further cultured for 15 days using the medium 3. During a period from day 4 to day 19 after the initiation of differentiation induction, BIO (5 μM) and DAPT (10 μM) were added to the culture system. Simultaneously with the addition of the BIO and the DAPT, the cells were further cultured for 5 days using the medium 3 supplemented with any one of phorbol-myristate-acetate (PMA), transforming growth factor β1 (TGEβ1), Wortmannin, Noggin, SB431542, Follistatin, EGF, R-spondin1, Pentagastrin, or Wnt3a (FIG. 2A and FIG. 3A).
(§2) With regard to the measurement of the enterocyte markers ANPEP and VILLIN, each of the enterocyte markers was measured by a quantitative real-time RT-PCR method using SYBR Green gene expression assays (APPLIED BIOSYSTEMS). […] Thus, high expressions of ANPEP and VILLIN were found when the cells were cultured in the system containing SB431542, EGF, or Wnt3a.
The quantitative real-time RT-PCR was performed by the following method. With the use of ISOGEN (NIPPON GENE), total RNA was collected from the enterocyte-like cells obtained by differentiation induction from the human iPS cells. Each total RNA was treated with RNase-free DNaseI (NEW ENGLAND BIOLABS), and then subjected to a reverse transcription reaction using […] VILO cDNA Synthesis Kit (INVITROGEN) to synthesize complementary DNA (cDNA). As a positive control, the total RNA (CLONTECH, BIOCHAIN four lots in total) of a human adult small intestine (human adult intestine: hereinafter sometimes referred to as “AI”) tissue to be used was similarly subjected to cDNA synthesis. A quantitative real-time RT-PCR method using SYBR Green gene expression assays (APPLIED BIOSYSTEMS) was performed, and quantification was performed with STEPONEPLUS real-time PCR System (APPLIED BIOSYSTEMS).

VILLIN = VILLIN expression by quantitative real-time RT-PCR in cells differentiating from human iPS cells to enterocyte-like cells; assay type: cell-based; conditions: compound added with BIO and DAPT, 5 days culture; versus control without the compounds; FIG. 3B
Description: as §1, §2
The quantitative real-time RT-PCR was performed by the following method. […] A quantitative real-time RT-PCR method using SYBR Green gene expression assays (APPLIED BIOSYSTEMS) was performed, and quantification was performed with STEPONEPLUS real-time PCR System (APPLIED BIOSYSTEMS).

HiPS-ELC-TFs = assay: TEER of HiPS-ELC-TFs (tight junction function); assay type: cell-based, human; conditions: under action of C10 (tight junction opener); without C10 about 430; FIG. 18A
Text: The tight junction function was confirmed by measuring TEER.

CYP3A4 [1] = system: CYP3A4
Text: (§3) As comparative cells, Caco-2 cells and LS180 cells were similarly investigated.

CYP3A4 [2] = system: CYP3A4; remark: listed apart in the source
Description: As control cells, Caco-2 cells were similarly subjected to measurement. The expression level of the gene was measured by a real-time RT-PCR method.
as §3

Row | Compound | expression of ANPEP (ANPEP) | expression of VILLIN (VILLIN) | CYP3A4 expression induction (CYP3A4 [1]) | also measured
1 | NC(=O)c1ccc(-c2nc(-c3ccc4c(c3)OCO4)c(-c3ccccn3)[nH]2)cc1 [SB431542] | high value | high value | – | –
2 | CCCCCCCCCC(=O)O [C10, capric acid] | – | – | – | TEER value of the HiPS-ELC-TFs (HiPS-ELC-TFs): ~0 Ω·cm^2
3 | epidermal growth factor [EGF] | high value | high value | – | –
4 | CCC1(c2ccccc2)C(=O)NC(=O)NC1=O [PB, phenobarbital] | – | – | significant expression induction | –
5 | C=C1CC[C@H](O)C/C1=C/C=C1\CCC[C@]2(C)[C@@H]([C@H](C)CCCC(C)C)CC[C@@H]12 [VD3, vitamin D3] | – | – | significant expression induction | CYP3A4 gene expression level increase as compared to DMSO action group (CYP3A4 gene): about 100 fold; CYP3A4 protein expression level (CYP3A4 protein): increased; CYP3A4 induction (CYP3A4 [2]): confirmed
6 | CCCCCCCCCCCCCC(=O)O[C@@H]1[C@@H](C)[C@@]2(O)[C@@H](C=C(CO)C[C@]3(O)C(=O)C(C)=C[C@@H]23)[C@@H]2C(C)(C)[C@]12OC(C)=O [PMA, phorbol-myristate-acetate] | high value | – | – | –

— patent US10889805B2, “Intestinal epithelioid cells” (National Institutes of Biomedical Innovation, Health and …, priority 2015, dated 2021)
